Results on eight molecules are retold here after ChEMBL document CHEMBL1122842, “Beta-adrenoceptor activity of the stereoisomers of the bufuralol alcohol and ketone metabolites” (J Med Chem, 1985).

This assay deals with Beta-1 adrenergic receptor (Rattus norvegicus) (UniProt P18090). The settings on record: Heart.
Sequence of Beta-1 adrenergic receptor (Rattus norvegicus) (P18090 whole entry, looked up): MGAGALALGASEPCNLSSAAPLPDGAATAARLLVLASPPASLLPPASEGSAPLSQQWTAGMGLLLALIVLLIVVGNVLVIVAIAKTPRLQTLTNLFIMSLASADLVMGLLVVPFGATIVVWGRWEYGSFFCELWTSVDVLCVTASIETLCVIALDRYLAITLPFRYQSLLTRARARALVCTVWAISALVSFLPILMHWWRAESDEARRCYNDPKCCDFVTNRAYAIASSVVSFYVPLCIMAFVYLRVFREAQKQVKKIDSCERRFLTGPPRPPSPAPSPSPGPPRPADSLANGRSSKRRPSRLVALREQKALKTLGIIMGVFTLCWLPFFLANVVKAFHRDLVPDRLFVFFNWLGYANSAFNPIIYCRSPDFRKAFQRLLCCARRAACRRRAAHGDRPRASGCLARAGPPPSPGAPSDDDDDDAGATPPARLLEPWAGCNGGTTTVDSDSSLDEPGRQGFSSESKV
Description: Beta-1 adrenergic receptor agonist activity as increased heart rate by 30 beats/min in rats
Take `CCc1cccc2cc([C@H](O)CNC(C)(C)C)oc12`: the ED30 is above 1 mg/kg.

`CC(O)c1cccc2cc([C@H](O)CNC(C)(C)C)oc12` (stereo in doubt; form 2): the ED30 worked out at 0.305 mg/kg.

In the case of `CC(=O)c1cccc2cc([C@H](O)CNC(C)(C)C)oc12`, the ED30 was determined as 0.032 mg/kg.

`CC(O)c1cccc2cc([C@H](O)CNC(C)(C)C)oc12` (stereo in doubt; form 1) came in with an ED30 above 1 mg/kg.

`CC(O)c1cccc2cc([C@@H](O)CNC(C)(C)C)oc12` (stereo in doubt; form 2) came in with an ED30 of 0.0007 mg/kg.

Consider `CC(O)c1cccc2cc([C@@H](O)CNC(C)(C)C)oc12` (stereo in doubt; form 1), for which the ED30 came to 0.019 mg/kg.

In the case of `CCc1cccc2cc([C@@H](O)CNC(C)(C)C)oc12`, the ED30 turned out to be 0.053 mg/kg.

As for `CC(=O)c1cccc2cc([C@@H](O)CNC(C)(C)C)oc12`, the ED30 worked out at 0.0006 mg/kg.
